# How the values were obtained:
# Format in all cases: functional
# Staphylococcus aureus [1] = assay: Antimicrobial activity against methicillin-susceptible Staphylococcus aureus Smith by NCCLS method
# Streptococcus pneumoniae [2] = assay: Antimicrobial activity against penicillin-resistant Streptococcus pneumoniae KT2524 by NCCLS method
# Staphylococcus aureus [3] = assay: Antimicrobial activity against methicillin-susceptible Staphylococcus aureus infected iv dosed mouse assessed as survival rate after 1 hr of infection
# Streptococcus pneumoniae [4] = assay: Antimicrobial activity against penicillin-susceptible Streptococcus pneumoniae ATCC 49619 by NCCLS method
# Staphylococcus aureus [5] = assay: Antimicrobial activity against methicillin-resistant Staphylococcus aureus KMP9
# Enterococcus faecium = assay: Antimicrobial activity against vancomycin-resistant Enterococcus faecium KU1778 by NCCLS method
# Moraxella catarrhalis = assay: Antimicrobial activity against Moraxella catarrhalis K1209 by NCCLS method
# Haemophilus influenzae = assay: Antimicrobial activity against Haemophilus influenzae TH13 by NCCLS method
# Streptococcus pyogenes = assay: Antimicrobial activity against Streptococcus pyogenes ATCC 112344 by NCCLS method
Structure (SMILES),MIC (Staphylococcus aureus [1]),MIC (Streptococcus pneumoniae [2]),ED50 (Staphylococcus aureus [3]),MIC (Streptococcus pneumoniae [4]),MIC (Staphylococcus aureus [5]),MIC (Enterococcus faecium),MIC (Moraxella catarrhalis),MIC (Haemophilus influenzae),MIC (Streptococcus pyogenes)
C=C[C@]1(C)C[C@@H](OC(=O)CN2CCN(C(=O)CCn3cnc4c(N5CCC(N)C5)ncnc43)CC2)[C@]2(C)[C@H](C)CC[C@]3(CCC(=O)[C@@H]32)[C@@H](C)[C@@H]1O.Cl.Cl (stereo not given in full),0.25 µg/mL,0.063 µg/mL,0.8 mg/kg,0.063 µg/mL,1 µg/mL,0.5 µg/mL,0.25 µg/mL,4 µg/mL,0.032 µg/mL
C=C[C@]1(C)C[C@@H](OC(=O)CN2CCN(C(=O)CCn3cnc4c(N5CCC(N)C5)ncnc43)C(CC)C2)[C@]2(C)[C@H](C)CC[C@]3(CCC(=O)[C@@H]32)[C@@H](C)[C@@H]1O.Cl.Cl (stereo not given in full),0.25 µg/mL,0.063 µg/mL,2.95 mg/kg,0.063 µg/mL,0.25 µg/mL,0.125 µg/mL,0.125 µg/mL,4 µg/mL,0.032 µg/mL
C=C[C@]1(C)C[C@@H](OC(=O)CN2CCN(C(=O)CCn3cnc4c(N5CC[C@@H](CNC)C5)ncnc43)CC2)[C@]2(C)[C@H](C)CC[C@]3(CCC(=O)[C@@H]32)[C@@H](C)[C@@H]1O.Cl.Cl,0.25 µg/mL,0.125 µg/mL,1.18 mg/kg,0.125 µg/mL,2 µg/mL,0.5 µg/mL,0.125 µg/mL,2 µg/mL,0.063 µg/mL
C=C[C@]1(C)C[C@@H](OC(=O)CN2CCN(C(=O)CCn3cnc4c(N5CCC(N)CC5)ncnc43)CC2)[C@]2(C)[C@H](C)CC[C@]3(CCC(=O)[C@@H]32)[C@@H](C)[C@@H]1O.Cl.Cl,0.25 µg/mL,0.125 µg/mL,0.97 mg/kg,0.125 µg/mL,1 µg/mL,0.25 µg/mL,0.125 µg/mL,2 µg/mL,0.032 µg/mL
C=C[C@]1(C)C[C@@H](OC(=O)CN2CCN(C(=O)CCn3cnc4c(N5CCC(CN)CC5)ncnc43)CC2)[C@]2(C)[C@H](C)CC[C@]3(CCC(=O)[C@@H]32)[C@@H](C)[C@@H]1O.Cl.Cl,0.25 µg/mL,0.125 µg/mL,1.51 mg/kg,0.125 µg/mL,1 µg/mL,0.25 µg/mL,0.125 µg/mL,2 µg/mL,0.032 µg/mL
C=C[C@]1(C)C[C@@H](OC(=O)CN2CCN(C(=O)CCn3cnc4c(N5CCC(N)C5)ncnc43)[C@@H](C)C2)[C@]2(C)[C@H](C)CC[C@]3(CCC(=O)[C@@H]32)[C@@H](C)[C@@H]1O.Cl.Cl (stereo not given in full),0.125 µg/mL,0.063 µg/mL,1.47 mg/kg,0.032 µg/mL,0.25 µg/mL,0.125 µg/mL,0.125 µg/mL,2 µg/mL,0.032 µg/mL
C=C[C@]1(C)C[C@@H](OC(=O)CN2CCN(C(=O)CCn3cnc4c(N5CC[C@H](CNC)C5)ncnc43)[C@@H](C)C2)[C@]2(C)[C@H](C)CC[C@]3(CCC(=O)[C@@H]32)[C@@H](C)[C@@H]1O.Cl.Cl,0.25 µg/mL,0.063 µg/mL,1.1 mg/kg,0.063 µg/mL,0.5 µg/mL,0.25 µg/mL,0.125 µg/mL,2 µg/mL,0.032 µg/mL
C=C[C@]1(C)C[C@@H](OC(=O)CN2CCN(C(=O)CCn3cnc4c(N5CCC(N)CC5)ncnc43)[C@@H](C)C2)[C@]2(C)[C@H](C)CC[C@]3(CCC(=O)[C@@H]32)[C@@H](C)[C@@H]1O.Cl.Cl,0.25 µg/mL,0.063 µg/mL,1.66 mg/kg,0.063 µg/mL,0.5 µg/mL,0.125 µg/mL,0.125 µg/mL,4 µg/mL,0.032 µg/mL
C=C[C@]1(C)C[C@@H](OC(=O)CN2CCN(C(=O)CCn3cnc4c(N5CCC(N(C)C)C5)ncnc43)CC2)[C@]2(C)[C@H](C)CC[C@]3(CCC(=O)[C@@H]32)[C@@H](C)[C@@H]1O.Cl.Cl (stereo not given in full),0.25 µg/mL,0.063 µg/mL,2.94 mg/kg,0.125 µg/mL,0.25 µg/mL,0.125 µg/mL,0.125 µg/mL,4 µg/mL,0.063 µg/mL
C=C[C@]1(C)C[C@@H](OC(=O)CN2CCN(C(=O)CCn3cnc4c(N5CCNCC5)ncnc43)CC2)[C@]2(C)[C@H](C)CC[C@]3(CCC(=O)[C@@H]32)[C@@H](C)[C@@H]1O.Cl.Cl,0.125 µg/mL,0.063 µg/mL,1.65 mg/kg,0.063 µg/mL,0.25 µg/mL,0.063 µg/mL,0.063 µg/mL,2 µg/mL,0.032 µg/mL
C=C[C@]1(C)C[C@@H](OC(=O)CN2CCN(C(=O)CCn3cnc4c(N5CCC(N)C5)ncnc43)[C@H](C)C2)[C@]2(C)[C@H](C)CC[C@]3(CCC(=O)[C@@H]32)[C@@H](C)[C@@H]1O.Cl.Cl (stereo not given in full),0.25 µg/mL,0.125 µg/mL,2.21 mg/kg,0.125 µg/mL,0.5 µg/mL,0.25 µg/mL,0.25 µg/mL,8 µg/mL,0.063 µg/mL
C=C[C@]1(C)C[C@@H](OC(=O)CN2CCN(C(=O)CCn3cnc4c(N5CC[C@H](N)C5)ncnc43)[C@@H](C)C2)[C@]2(C)[C@H](C)CC[C@]3(CCC(=O)[C@@H]32)[C@@H](C)[C@@H]1O.Cl.Cl,0.25 µg/mL,0.032 µg/mL,1.1 mg/kg,0.032 µg/mL,0.5 µg/mL,0.125 µg/mL,0.125 µg/mL,4 µg/mL,0.016 µg/mL
C=C[C@]1(C)C[C@@H](OC(=O)CN2CCN(C(=O)CCn3cnc4c(N5CC[C@@H](N)C5)ncnc43)[C@@H](C)C2)[C@]2(C)[C@H](C)CC[C@]3(CCC(=O)[C@@H]32)[C@@H](C)[C@@H]1O.Cl.Cl,0.125 µg/mL,0.032 µg/mL,1.56 mg/kg,0.032 µg/mL,0.25 µg/mL,0.125 µg/mL,0.125 µg/mL,2 µg/mL,0.016 µg/mL
C=C[C@]1(C)C[C@@H](OC(=O)CN2CCN(C(=O)CCn3cnc4c(N5CCC(NCC)C5)ncnc43)CC2)[C@]2(C)[C@H](C)CC[C@]3(CCC(=O)[C@@H]32)[C@@H](C)[C@@H]1O.Cl.Cl (stereo not given in full),0.25 µg/mL,0.125 µg/mL,2.21 mg/kg,0.125 µg/mL,0.5 µg/mL,0.25 µg/mL,0.125 µg/mL,4 µg/mL,0.063 µg/mL
C=C[C@]1(C)C[C@@H](OC(=O)CN2CCN(C(=O)CCn3cnc4c(N5CCC(CN)C5)ncnc43)CC2)[C@]2(C)[C@H](C)CC[C@]3(CCC(=O)[C@@H]32)[C@@H](C)[C@@H]1O.Cl.Cl (stereo not given in full),0.25 µg/mL,0.125 µg/mL,1.21 mg/kg,0.063 µg/mL,2 µg/mL,1 µg/mL,0.5 µg/mL,4 µg/mL,0.032 µg/mL
C=C[C@]1(C)C[C@@H](OC(=O)CN2CCCN(C(=O)CCn3cnc4c(N5CCC(N)C5)ncnc43)CC2)[C@]2(C)[C@H](C)CC[C@]3(CCC(=O)[C@@H]32)[C@@H](C)[C@@H]1O.Cl.Cl (stereo not given in full),0.5 µg/mL,0.063 µg/mL,2.51 mg/kg,0.063 µg/mL,1 µg/mL,0.25 µg/mL,0.25 µg/mL,4 µg/mL,0.032 µg/mL
C=C[C@]1(C)C[C@@H](OC(=O)CN2CCN(C(=O)CCn3cnc4c(N5CC[C@H](CNC)C5)ncnc43)CC2)[C@]2(C)[C@H](C)CC[C@]3(CCC(=O)[C@@H]32)[C@@H](C)[C@@H]1O.Cl.Cl,0.25 µg/mL,0.063 µg/mL,0.83 mg/kg,0.125 µg/mL,2 µg/mL,0.5 µg/mL,0.125 µg/mL,0.5 µg/mL,0.032 µg/mL
C=C[C@]1(C)C[C@@H](OC(=O)CN2CCN(C(=O)CCn3cnc4c(N5CCC(CNC)C5)ncnc43)CC2)[C@]2(C)[C@H](C)CC[C@]3(CCC(=O)[C@@H]32)[C@@H](C)[C@@H]1O.Cl.Cl (stereo not given in full),0.25 µg/mL,0.125 µg/mL,1.1 mg/kg,0.125 µg/mL,2 µg/mL,1 µg/mL,0.5 µg/mL,4 µg/mL,0.032 µg/mL
C=C[C@]1(C)C[C@@H](OC(=O)CN2CCN(C(=O)CCn3cnc4c(N5CCC(N)C5)ncnc43)C(C)C2)[C@]2(C)[C@H](C)CC[C@]3(CCC(=O)[C@@H]32)[C@@H](C)[C@@H]1O.Cl.Cl (stereo not given in full),0.25 µg/mL,0.032 µg/mL,1.39 mg/kg,0.032 µg/mL,0.25 µg/mL,0.125 µg/mL,0.125 µg/mL,2 µg/mL,0.032 µg/mL
C=C[C@]1(C)C[C@@H](OC(=O)CN2CCN(C(=O)CCn3cnc4c(N5CCC(CNC)C5)ncnc43)[C@@H](C)C2)[C@]2(C)[C@H](C)CC[C@]3(CCC(=O)[C@@H]32)[C@@H](C)[C@@H]1O.Cl.Cl (stereo not given in full),0.125 µg/mL,0.032 µg/mL,1.2 mg/kg,0.063 µg/mL,1 µg/mL,0.25 µg/mL,0.125 µg/mL,2 µg/mL,0.063 µg/mL
C=C[C@]1(C)C[C@@H](OC(=O)CN2CCN(C(=O)CCn3cnc4c(N5CCC(NC)C5)ncnc43)CC2)[C@]2(C)[C@H](C)CC[C@]3(CCC(=O)[C@@H]32)[C@@H](C)[C@@H]1O.Cl (stereo not given in full),0.25 µg/mL,0.125 µg/mL,1.3 mg/kg,0.063 µg/mL,1 µg/mL,0.25 µg/mL,0.25 µg/mL,4 µg/mL,0.032 µg/mL
CN[C@H](CC(C)C)C(=O)N[C@H]1C(=O)N[C@@H](CC(N)=O)C(=O)N[C@H]2C(=O)N[C@H]3C(=O)N[C@H](C(=O)N[C@H](C(=O)O)c4cc(O)cc(O)c4-c4cc3ccc4O)[C@H](O)c3ccc(c(Cl)c3)Oc3cc2cc(c3O[C@@H]2O[C@H](CO)[C@@H](O)[C@H](O)[C@H]2O[C@H]2C[C@](C)(N)[C@H](O)[C@H](C)O2)Oc2ccc(cc2Cl)[C@H]1O [VANCOMYCIN],,0.5 µg/mL,0.88 mg/kg,0.25 µg/mL,,> 128 µg/mL,64 µg/mL,> 128 µg/mL,
